Where no end group is shown, it is not given here. [ ]: non-standard residue; d: D form. 5/6‑FAM = fluorescein

Test [1] has as its target T1, Hs_FPR2 (Homo sapiens, UniProt P25090).
T1 construct: expressed in transfected cells
T1 sequence (P25090 1-351): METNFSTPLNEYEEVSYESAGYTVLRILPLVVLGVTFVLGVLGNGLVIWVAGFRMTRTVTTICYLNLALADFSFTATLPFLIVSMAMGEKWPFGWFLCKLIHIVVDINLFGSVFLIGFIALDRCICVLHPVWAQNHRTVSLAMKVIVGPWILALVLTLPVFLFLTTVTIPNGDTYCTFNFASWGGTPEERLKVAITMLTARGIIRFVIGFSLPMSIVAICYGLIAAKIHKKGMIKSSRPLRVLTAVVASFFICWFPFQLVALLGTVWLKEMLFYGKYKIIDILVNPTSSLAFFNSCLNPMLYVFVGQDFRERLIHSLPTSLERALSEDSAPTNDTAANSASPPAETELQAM
Description: Internalization of FLAG-tagged receptors by flow cytometry. It counts as cell-based. The arrangement: Emax: dose or concentration left out as unconfirmed. The protocol: Internalization of FPRs was measured by flow cytometry.[30] Briefly, cells were incubated with Alexa Fluor 657 conjugated M1 antiflag antibody (Sigma-Aldrich Cat# F3040, RRID:AB_439712) for 30 minutes at 37 °C to label surface receptors. Cells were then incubated with the indicated concentration of ligand before washing in PBS/0.04% EDTA to remove any remaining surface antibody. Remaining fluorescence was then measured using flow cytometry on either a BD FACScalibur or Attune, recording 5000 gated events. […] As a control, some samples were left untreated, and “strip only” was measured as a readout of constitutive endocytosis, and this value was subtracted from the data.
(§1) All data were analyzed using GraphPad Prism using the nonlinear regression log(agonist) versus response (3 parameters) function for all assays, except binding, which was analyzed using the One site-FitlogIC50 function. Bias calculations were carried out following IUPHAR guidelines as described,[27]^,[37] and data were presented as the Δ Activity ratio (Log[EmaxB/EC50B])-(Log[EmaxA/EC50A]).

Test [2] has as its target T2, Mm_Fpr1 (Mus musculus, UniProt P33766).
T2 construct: expressed in transfected cells
T2 sequence (P33766 1-364): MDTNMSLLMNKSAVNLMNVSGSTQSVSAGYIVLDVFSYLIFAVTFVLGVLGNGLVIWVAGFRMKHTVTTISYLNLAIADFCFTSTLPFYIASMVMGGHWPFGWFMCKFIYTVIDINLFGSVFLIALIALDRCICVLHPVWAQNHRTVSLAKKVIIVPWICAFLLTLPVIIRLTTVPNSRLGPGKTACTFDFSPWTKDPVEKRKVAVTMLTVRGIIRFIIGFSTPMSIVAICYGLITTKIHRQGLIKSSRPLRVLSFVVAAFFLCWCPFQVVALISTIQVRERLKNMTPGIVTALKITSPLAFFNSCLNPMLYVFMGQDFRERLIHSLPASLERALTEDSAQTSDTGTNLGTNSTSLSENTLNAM
As to the kind of experiment: BRET receptor-RLuc8 interaction with Venus-mGsi. In kind it is cell-based. The method, then: (§2) BRET1 assays to measure FPR interaction with Venus-mGsi and Arrestin 3-yellow fluorescent protein (YFP) were performed as previously described.[31]^,[32] Briefly, all FPRs C-terminally fused to Renilla Luciferase (donor, RLuc8) were transiently transfected along with either Venus-mGsi or YFP-Arrestin 3 (acceptor) at a ratio of 1:4. 24 hours post transfection, cells were replated into white-walled, 96-well plates and cultured for a further 24–48 hours. On the day of experimentation, growth media was aspirated and replaced with 80 μl Hanks Buffered Saline Solution and equilibrated for 30 minutes. Coelenterazine h was added to each well to a final concentration of 5 μM for 5 minutes before the addition of each compound, and the plate was incubated for a further 10 minutes at 37 °C before being read on a ClarioStar Plus, with luminescence measured at 480/20 nm (donor) and 530/20 (acceptor). The BRET ratio (acceptor/donor) was determined, and the background (untreated) subtracted to give the N-BRET value.
as §1
A general note: Bioluminescence resonance energy transfer reports proximity on the nanometre scale.

Test [3] concerns the target T1, Hs_FPR2. As to the kind of experiment: BRET receptor-RLuc8 interaction with Venus-mGsi. It counts as cell-based. The method, then:
as §2, §1

In test [4] the target is T3, Mm_Fpr2 (Mus musculus, UniProt O88536).
T3 construct: expressed in transfected cells
T3 sequence (O88536 1-351): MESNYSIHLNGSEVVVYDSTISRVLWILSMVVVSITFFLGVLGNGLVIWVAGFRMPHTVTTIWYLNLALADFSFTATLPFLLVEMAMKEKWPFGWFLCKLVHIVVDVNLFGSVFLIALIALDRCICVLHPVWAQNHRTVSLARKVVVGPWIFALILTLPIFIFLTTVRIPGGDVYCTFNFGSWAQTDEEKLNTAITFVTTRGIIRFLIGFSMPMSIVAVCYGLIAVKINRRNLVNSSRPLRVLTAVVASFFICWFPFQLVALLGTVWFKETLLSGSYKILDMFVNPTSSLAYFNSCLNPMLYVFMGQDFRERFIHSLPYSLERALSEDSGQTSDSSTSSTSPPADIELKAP
As to the kind of experiment: BRET receptor-RLuc8 interaction with Venus-mGsi. It counts as cell-based. The method, then: as §2, §1

Test [5] deals with T2, Mm_Fpr1. As to the kind of experiment: Internalization of FLAG-tagged receptors by flow cytometry. In kind it is cell-based. The arrangement: Emax: dose or concentration left out as unconfirmed. The method, then:
(§3) Internalization of FPRs was measured by flow cytometry.[30] Briefly, cells were incubated with Alexa Fluor 657 conjugated M1 antiflag antibody (Sigma-Aldrich Cat# F3040, RRID:AB_439712) for 30 minutes at 37 °C to label surface receptors. Cells were then incubated with the indicated concentration of ligand before washing in PBS/0.04% EDTA to remove any remaining surface antibody. Remaining fluorescence was then measured using flow cytometry on either a BD FACScalibur or Attune, recording 5000 gated events. […] As a control, some samples were left untreated, and “strip only” was measured as a readout of constitutive endocytosis, and this value was subtracted from the data. Vehicle control (0.1% DMSO) had no effect on internalization of receptors.
as §1
A general note: In flow cytometry, cells or beads pass a laser one at a time.

For test [6], the target named is T3, Mm_Fpr2. The description is as above. In kind it is cell-based. More on the design: Emax: dose or concentration left out as unconfirmed. The protocol:
as §3, §1

The target of test [7] is T2, Mm_Fpr1. As to the kind of experiment: ERK1/2 phosphorylation by Western blotting. In kind it is cell-based. The method, then: (§4) ERK phosphorylation was detected by Western blotting as previously described.[30] Briefly, HEK293 cells stably expressing FLAG-tagged FPRs were plated into 12-well culture plates until 90% confluent. On the day of the experiment, culture media was replaced with serum-free Dulbecco’s modified Eagle’s medium and incubated for 2 hours before stimulation with the indicated compounds. After 7 minutes, the media was removed and stimulation terminated by the addition of 100 μl sample buffer (0.5% SDS, Tris (pH 6.8), glycerol, at >90 °C).
as §1

The target of test [8] is T1, Hs_FPR2. Description: ERK1/2 phosphorylation by Western blotting. It counts as cell-based. The method, then:
as §4, §1

Test [9] deals with T2, Mm_Fpr1. Description: Competition binding of fluorescent WKYMVm, flow cytometry. The method, then:
(§5) Mean cell fluorescence was then measured for 5000 cells by flow cytometry using either a BD FACScalibur or BD Attune.
as §1

Test [10] addresses T1, Hs_FPR2. Described as above. The protocol:
as §5, §1

The target in test [11] is T2, Mm_Fpr1. Description: BRET receptor-RLuc8 interaction with Arrestin 3-YFP. It counts as cell-based. The protocol:
as §2, §1

Test [12] addresses T3, Mm_Fpr2. Described as above. In kind it is cell-based. The method, then:
as §2, §1

The mark [13] stands for this setting: maximum proportion of competition with 10 nM K(5/6-FAM)-WKYMVm, mean, ND = no competition observed.

For the compound `CSCC[C@H](NC=O)C(=O)N[C@@H](CC(C)C)C(=O)N[C@@H](Cc1ccccc1)C(=O)O` [fMLF, fMet-Leu-Phe], the Emax at Hs_FPR2 [1] came out at 0.343%; on Mm_Fpr1 [2] it was 59.3%; at Hs_FPR2 [3], 61.7%; at Mm_Fpr2 [4], 13.2%; on Mm_Fpr1 [5], 92.5%; on Mm_Fpr2 [6], 54.4%. The Emax on Mm_Fpr1 [7] stood at 72.7%; at Hs_FPR2 [8] it was 40.2%; on Mm_Fpr1 [11] it was 83.4%; on Mm_Fpr2 [12] it was 22.7%. Further, the EC50 was 11.7 µM at Mm_Fpr1 [2]; 26.3 µM on Mm_Fpr2 [4]; 4.48 µM at Mm_Fpr1 [5]; 2.27 µM on Mm_Fpr1 [7] (log of EC50, phosphorylation of ERK1/2, HEK293 stable cells, mean, ND = no pERK signal detected); 20.9 µM on Mm_Fpr1 [11]; 19.5 µM at Mm_Fpr2 [12]. The compound further gave an IC50 at Mm_Fpr1 [9] of 3.18 µM. Also, the “Max Comp (%)” value at Mm_Fpr1 [9] (setting [13]) is 45.65%; at Hs_FPR2 [10] (setting [13]), 3.4%.
In the case of “K(5/6-FAM)-WKYMVm-NH2 (K(5/6‑FAM)WKYMV[dM]-NH2)”, the “Kd, saturable binding” value with Hs_FPR2 [10] (hFPR2, initial studies (not shown)) is given as “low nM range”.

The Emax is the greatest response seen or fitted, relative to the assay's reference. For orientation: EC50 means the concentration that produces a half-maximal response. The IC50 is the concentration at which inhibition is half-maximal.

The record behind these values is PMC12881670, “Investigation into ligand selectivity and bias at the formyl peptide receptor family” (The Journal of Pharmacology and Experimental Therapeutics, 2025).
